Consider `CCN1CCN(CC(=O)Nc2nc(-c3ccco3)c(C(=O)c3ccccn3)s2)CC1` [Compound 273, 2-(4-Ethylpiperazin-1-yl)-N-[4-(2-furyl)-5-(pyridin-2-ylcarbonyl)thiazol-2-yl]acetamide], for which the melting point – broadly, the temperature of the solid-liquid transition – fell in the range of 142 to 144 °C.
The same measure for `CC(C)N1CCN(CC(=O)Nc2nc(-c3ccco3)c(C(=O)c3ccccn3)s2)CC1` [Compound 274, N-[4-(2-Furyl)-5-(pyridin-2-ylcarbonyl)thiazol-2-yl]-2-(4-isopropylpiperazin-1-yl)acetamide]: 154 to 155 °C; for `CC(=O)N1CCN(CC(=O)Nc2nc(-c3ccco3)c(C(=O)c3ccccn3)s2)CC1` [Compound 275, 2-(4-Acetylpiperazin-1-yl)-N-[4-(2-furyl)-5-(pyridin-2-ylcarbonyl)thiazol-2-yl]acetamide]: 170 to 171 °C; for `O=C(CN1CCN(c2ccccc2)CC1)Nc1nc(-c2ccco2)c(C(=O)c2ccccn2)s1` [Compound 276, N-[4-(2-Furyl)-5-(pyridin-2-ylcarbonyl)thiazol-2-yl]-2-(4-phenylpiperazin-1-yl)acetamide]: 203 to 204 °C.
As to `O=C(CN1CCN(c2ccccn2)CC1)Nc1nc(-c2ccco2)c(C(=O)c2ccccn2)s1` [Compound 277, N-[4-(2-Furyl)-5-(pyridin-2-ylcarbonyl)thiazol-2-yl]-2-[4-(2-pyridyl)piperazin-1-yl]acetamide], the melting point was 215 to 218 °C.
The same measure for `O=C(CN1CCN(c2ncccn2)CC1)Nc1nc(-c2ccco2)c(C(=O)c2ccccn2)s1` [Compound 278, N-[4-(2-Furyl)-5-(pyridin-2-ylcarbonyl)thiazol-2-yl]-2-[4-(2-pyrimidinyl)piperazin-1-yl]acetamide]: 199 to 200 °C; for `O=C(CN1CCN(C2CCOCC2)CC1)Nc1nc(-c2ccco2)c(C(=O)c2ccccn2)s1` [Compound 279, N-[4-(2-Furyl)-5-(pyridin-2-ylcarbonyl)thiazol-2-yl]-2-[4-(tetrahydropyran-4-yl)piperazin-1-yl]acetamide]: 172 to 188 °C.
The same measure for `O=C(CN1CCSC1)Nc1nc(-c2ccco2)c(C(=O)c2ccccn2)s1` [Compound 281, N-[4-(2-Furyl)-5-(pyridin-2-ylcarbonyl)thiazol-2-yl]-2-(1,3-thiazolidin-3-yl)acetamide]: 153 to 155 °C; for `O=C(CN1CCSCC1)Nc1nc(-c2ccco2)c(C(=O)c2ccccn2)s1` [Compound 282, N-[4-(2-Furyl)-5-(pyridin-2-ylcarbonyl)thiazol-2-yl]-2-thiomorpholinoacetamide]: 148 to 149 °C.
The molecule `COc1cccc(C(=O)c2sc(NC(=O)c3ccncc3)nc2-c2ccco2)n1` [Compound 283, N-[4-(2-Furyl)-5-(6-methoxypyridin-2-ylcarbonyl)thiazol-2-yl]pyridine-4-carboxamide] displayed a melting point of 247 to 250 °C.
The molecule `Cc1cccc(C(=O)c2sc(NC(=O)c3ccncc3)nc2-c2ccco2)n1` [Compound 284, N-[4-(2-Furyl)-5-(6-methylpyridin-2-ylcarbonyl)thiazol-2-yl]pyridine-4-carboxamide] yielded a melting point of 238 to 241 °C.
The same measure for `Cc1ccc(C(=O)c2sc(NC(=O)c3ccncc3)nc2-c2ccco2)nc1` [Compound 294, N-[4-(2-Furyl)-5-(5-methylpyridin-2-ylcarbonyl)thiazol-2-yl]pyridine-4-carboxamide]: 255 to 257 °C.
`Cc1ccnc(C(=O)c2sc(NC(=O)c3ccncc3)nc2-c2ccco2)c1` [Compound 295, N-[4-(2-Furyl)-5-(4-methylpyridin-2-ylcarbonyl)thiazol-2-yl]pyridine-4-carboxamide] returned a melting point of 240 to 245 °C.
Next, `O=C(Nc1nc(-c2ccco2)c(C(=O)c2cccnc2)s1)c1ccncc1` [Compound 304, N-[4-(2-Furyl)-5-(pyridin-3-ylcarbonyl)thiazol-2-yl]pyridine-4-carboxamide]: 245 to 248 °C; `O=C(c1cccnc1)c1sc(NC(=O)C2CC2)nc1-c1ccco1` [Compound 305, N-[4-(2-Furyl)-5-(pyridin-3-ylcarbonyl)thiazol-2-yl]cyclopropanecarboxamide]: 231 to 233 °C.
Molecule `N#Cc1ccc(C(=O)Nc2nc(-c3ccco3)c(C(=O)c3cccnc3)s2)cc1` [Compound 306, 4-Cyano-N-[4-(2-furyl)-5-(pyridin-3-ylcarbonyl)thiazol-2-yl]benzamide] showed a melting point of 288 to 290 °C.
The same measure for `O=C(Nc1nc(-c2ccco2)c(C(=O)c2cccnc2)s1)c1ccco1` [Compound 307, N-[4-(2-Furyl)-5-(pyridin-3-ylcarbonyl)thiazol-2-yl]furan-2-carboxamide]: 234 to 236 °C.
The same measure for `Cc1ncccc1C(=O)c1sc(NC(=O)c2ccncc2)nc1-c1ccco1` [Compound 310, N-[4-(2-Furyl)-5-(2-methylpyridin-3-ylcarbonyl)thiazol-2-yl]pyridine-4-carboxamide]: 230 to 234 °C.
As for `Cc1ccc(C(=O)c2sc(NC(=O)c3ccncc3)nc2-c2ccco2)cn1` [Compound 313, N-[4-(2-Furyl)-5-(2-methylpyridin-5-ylcarbonyl)thiazol-2-yl]pyridine-4-carboxamide], the melting point was 230 to 232 °C (dec.).
`Cc1ccc(C(=O)c2sc(NC(=O)c3ccc(C#N)cc3)nc2-c2ccco2)cn1` [Compound 314, 4-Cyano-N-[4-(2-furyl)-5-(2-methylpyridin-5-ylcarbonyl)thiazol-2-yl]benzamide] returned a melting point of 261 to 265 °C.
The same measure for `Cc1ccc(C(=O)c2sc(NC(=O)c3ccco3)nc2-c2ccco2)cn1` [Compound 315, N-[4-(2-Furyl)-5-(2-methylpyridin-5-ylcarbonyl)thiazol-2-yl]furan-2-carboxamide]: 197 to 209 °C.
The same measure for `Cc1ccc(C(=O)c2sc(NC(=O)c3ccoc3)nc2-c2ccco2)cn1` [Compound 316, N-[4-(2-Furyl)-5-(2-methylpyridin-5-ylcarbonyl)thiazol-2-yl]furan-3-carboxamide]: 229 to 231 °C; for `COc1ccc(C(=O)c2sc(NC(=O)c3ccncc3)nc2-c2ccco2)cn1` [Compound 319, N-[4-(2-Furyl)-5-(2-methoxypyridin-5-ylcarbonyl)thiazol-2-yl]pyridine-4-carboxamide]: 246 to 257 °C (dec.).
For `O=C(Nc1nc(-c2ccco2)c(C(=O)c2ccc(N3CCOCC3)nc2)s1)c1ccncc1` [Compound 324, N-[4-(2-Furyl)-5-(2-morpholinopyridin-5-ylcarbonyl)thiazol-2-yl]pyridine-4-carboxamide], the melting point was 195 to 205 °C.
Next, `CN1CCN(c2ccc(C(=O)c3sc(NC(=O)c4ccncc4)nc3-c3ccco3)cn2)CC1` [Compound 325, N-(4-(2-Furyl)-5-[2-(4-methylpiperazin-1-yl)pyridin-5-ylcarbonyl]thiazol-2-yl)pyridine-4-carboxamide]: 195 to 205 °C; `O=C(Nc1nc(-c2ccco2)c(C(=O)c2ccc(N3CCC(O)CC3)nc2)s1)c1ccncc1` [Compound 326, N-{4-(2-Furyl)-5-[2-(4-hydroxypiperidino)pyridin-5-ylcarbonyl]thiazol-2-yl}pyridine-4-carboxamide]: 264 to 268 °C; `O=C(Nc1nc(-c2ccco2)c(C(=O)c2ccncc2)s1)c1ccncc1` [Compound 329, N-[4-(2-Furyl)-5-(pyridin-4-ylcarbonyl)thiazol-2-yl]pyridine-4-carboxamide]: 276 to 285 °C.
`Cc1cc(C(=O)c2sc(NC(=O)c3ccncc3)nc2-c2ccco2)ccn1` [Compound 332, N-[4-(2-Furyl)-5-(2-methylpyridin-4-ylcarbonyl)thiazol-2-yl]pyridine-4-carboxamide] yielded a melting point of 223 to 225 °C.
With `Cc1cc(C(=O)Nc2nc(-c3ccco3)c(C(=O)c3ccnc(C)c3)s2)ccn1` [Compound 333, N-[4-(2-Furyl)-5-(2-methylpyridin-4-ylcarbonyl)thiazol-2-yl]-2-methylpyridine-4-carboxamide], the melting point lay within 205 to 229 °C.
Regarding `COc1cc(C(=O)c2sc(NC(=O)c3ccncc3)nc2-c2ccco2)ccn1` [Compound 336, N-[4-(2-Furyl)-5-(2-methoxypyridin-4-ylcarbonyl)thiazol-2-yl]pyridine-4-carboxamide], the melting point lay within 237 to 239 °C.
The same measure for `O=C(Nc1nc(-c2ccco2)c(C(=O)c2ccnc(N3CCOCC3)c2)s1)c1ccncc1` [Compound 339, N-[4-(2-Furyl)-5-(2-morpholinopyridin-4-ylcarbonyl)thiazol-2-yl]pyridine-4-carboxamide]: 270 to 273 °C; for `O=C(Nc1nc(-c2ccco2)c(C(=O)c2ccco2)s1)c1ccncc1` [Compound 342, N-[4-(2-Furyl)-5-(furan-2-ylcarbonyl)thiazol-2-yl]pyridine-4-carboxamide]: 245 to 248 °C.
Molecule `Cc1ccc(C(=O)c2sc(NC(=O)c3ccncc3)nc2-c2ccco2)o1` [Compound 343, N-[4-(2-Furyl)-5-(5-methylfuran-2-ylcarbonyl)thiazol-2-yl]pyridine-4-carboxamide] returned a melting point of 185 to 189 °C.
For the molecule `O=C(Nc1nc(-c2ccco2)c(C(=O)c2ccoc2)s1)c1ccncc1` [Compound 346, N-[4-(2-furyl)-5-(furan-3-ylcarbonyl)thiazol-2-yl]pyridine-4-carboxamide], the melting point was in the range of 217 to 231 °C.
The same measure for `O=C(Nc1nc(-c2ccco2)c(C(=O)c2cccs2)s1)c1ccncc1` [Compound 347, N-[4-(2-Furyl)-5-(thiophen-2-ylcarbonyl)thiazol-2-yl]pyridine-4-carboxamide]: 208 to 210 °C; for `Cc1cnc(C(=O)c2sc(NC(=O)c3ccncc3)nc2-c2ccco2)s1` [Compound 349, N-[4-(2-Furyl)-5-(5-methylthiazol-2-ylcarbonyl)thiazol-2-yl]pyridine-4-carboxamide]: 275 to 277 °C (dec.).
The same measure for `Cc1csc(C(=O)c2sc(NC(=O)c3ccncc3)nc2-c2ccco2)n1` [Compound 350, N-[4-(2-Furyl)-5-(4-methylthiazol-2-ylcarbonyl)thiazol-2-yl]pyridine-4-carboxamide]: 250 to 255 °C.

For the origin of these results see patent US7718808B2, “Thiazole derivatives” (Kyowa Hakko Kirin Co., Ltd., priority 2003, dated 2010).
